Assays:
[1] = target: T1, Rat liver Δ-9 fatty acid desaturase (Rattus norvegicus, UniProt P07308); assay: Rat liver microsomal Δ-9 fatty acid desaturase assay (14C-palmitoyl-CoA to palmitoleic acid); type: biochemical
T1 construct: The upper gelatinous layer is the microsomal fraction; from tissue; host or cells: liver of Sprague-Dawley rats (starved, then fed a fat-free diet), microsomal fraction
T1 sequence (P07308 1-358): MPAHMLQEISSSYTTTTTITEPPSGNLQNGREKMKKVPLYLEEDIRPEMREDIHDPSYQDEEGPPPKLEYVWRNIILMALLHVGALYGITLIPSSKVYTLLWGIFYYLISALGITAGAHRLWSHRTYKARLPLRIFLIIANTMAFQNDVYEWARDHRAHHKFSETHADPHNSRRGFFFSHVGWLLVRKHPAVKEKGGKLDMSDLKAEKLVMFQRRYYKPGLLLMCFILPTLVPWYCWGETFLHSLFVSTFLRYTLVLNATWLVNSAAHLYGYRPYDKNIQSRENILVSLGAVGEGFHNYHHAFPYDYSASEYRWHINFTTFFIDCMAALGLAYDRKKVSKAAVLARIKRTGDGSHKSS
Description: The following method was used to prepare the microsomal Δ-9 fatty acid desaturase from rat liver. Sprague-Dawley rats weighing between 120 and 180 g were fed with Purina laboratory chow, starved for 48 h, then fed with a “Fat-Free” test diet (Nutritional Biochemical Corporation) for 20 h. Livers were removed and placed in cold […] Tris-acetate buffer, pH 8.1, containing 0.25 M sucrose and 1 mM EDTA. The tissue was washed twice with 10 volumes of cold buffer, blotted dry and weighed. The tissue was minced and homogenized in 5 ml of buffer per gram of tissue using a glass homogenizer with a loose fitting Teflon pestle. […]
Delta-9 Fatty acid desaturase assays were performed by measuring the desaturation of ^14C-palmitoyl-CoA to palmitoleic acid using 0.5 ml reaction mixtures containing 0.1 M potassium phosphate buffer, pH 7.2, 1 mM NADH and 26 μM ^14C-palmitoyl-CoA (0.028 μCi per assay) in 13×100 mm glass culture tubes. […] The upper cyclohexane layer was removed and 100 μI analyzed by HPLC on a Supelcosil LC-18 column (25×4.6 mm) with methanol-water-phosphoric acid (90:9.9:0.1, by volume) as the mobile phase at a flow rate of 1 ml/min. A Packard A120 RAM detector was used to determine the amounts of radioactivity in the palmitic and palmitoleic acid fractions. […] The concentration of compound 1 which inhibited production of palmitoleic acid by 50% was determined from dose-response curves.

[2] = system: Candida albicans (American Type Culture Collection strain 10231); assay: Control of Candida albicans infection in mice; type: in vivo; details: for % Survival: mortality over 10 days
Description: Compound 1 (6-(4-chlorophenyl)-2-(2′-pentynyl)pyridazinone, described as compound 109 in European Patent Publication No. EP 478 195 A1) in 5% dimethylsulfoxide (DMSO) in saline solution was administered intraperitoneally 1 h before and at 4, 24, 48 and 72 h after intravenous inoculation with Candida albicans (American Type Culture Collection strain 10231). Ten mice were used for each treatment. Mortality was recorded over a period of 10 days.

S. cerevisiae = assay: Fatty acid composition of S. cerevisiae after treatment (capillary gas chromatography); type: cell-based, Saccharomyces cerevisiae; details: 18 h
Description: S. cerevisiae was grown in SD medium as 5 ml aliquots of cell suspension in 20 ml capacity glass vials as described in example 3 in the absence (controls) and presence of compound 1. Compound 1 was added as 25 μl of solution in DMSO, and controls received 25 ul DMSO alone. After growth for 18 h at 30° C. with shaking at 225 rpm, inhibition of growth by compound 1 was determined as described in example 3, and the fatty acid composition was determined as follows. The cells were centrifuged in 20 ml borosilicate glass culture tubes at 2000 rpm. The supernatant was decanted, and the cells were re-suspended in 10 ml of water and re-centrifuged at 2000 rpm. The supernatant was decanted, and the cells were saponified by heating at 80° C. for 1 hour in 2.5 ml of 10% potassium hydroxide solution in 90% methanol/10% water. The non-saponifiable lipids were removed by extracting the basic solution with 2×3 ml of cyclohexane. The basic solution was then acidified to pH 2 with 6N hydrochloric acid, and the acidic solution was again extracted with 2×3 ml of cyclohexane. These extracts were analyzed directly by capillary gas chromatography using an HP5890 gas chromatograph equipped with a Restek Stabilwax DB capillary column (30m×0.53 mm i.d.×0.25 μm film thickness) and a flame ionization detector. Analyses were run at 225° C. isothermally, and compared to a sample free fatty acid mixture prepared from authentic standards purchased from Sigma.

For `CCC#CCn1nc(-c2ccc(Cl)cc2)ccc1=O` [Compound 1, 6-(4-chlorophenyl)-2-(2′-pentynyl)pyridazinone], the “Inhibition of mammalian Δ-9 fatty acid desaturase (in words)” value [1] was “does not inhibit”, the “Rat liver desaturase EC50” value ([1]; microsomal preparation, 26 μM 14C-palmitoyl-CoA, 30° C., 5 min) was >100 ppm and the “Inhibition of Candida albicans infection in mice (in words)” value [2] was “effective inhibitor”. The “% Survival” value ([2]; 10 mg/kg) was 20%, the “% Survival” value ([2]; 30 mg/kg intraperitoneally 1 h before and 4, 24, 48, 72 h after i.v. inoculation) was 40% and the “% Survival” value ([2]; 100 mg/kg intraperitoneally 1 h before and 4, 24, 48, 72 h after i.v. inoculation) was 50%. The “oleic acid per milligram dry weight of cells” value (S. cerevisiae; 0.0625 μg/ml) was 8.5 µg/mg, the “palmitic acid per milligram dry weight of cells” value (S. cerevisiae; 0.0625 μg/ml) was 7.1 µg/mg and the “palmitoleic acid per milligram dry weight of cells” value (S. cerevisiae; 0.0625 μg/ml) was 14.2 µg/mg. For the same molecule, the “stearic acid per milligram dry weight of cells” value (S. cerevisiae; 0.0625 μg/ml) was 2.8 µg/mg, the “oleic acid per milligram dry weight of cells” value (S. cerevisiae; 0.125 μg/ml) was 4.3 µg/mg and the “palmitic acid per milligram dry weight of cells” value (S. cerevisiae; 0.125 μg/ml) was 6.5 µg/mg. The “palmitoleic acid per milligram dry weight of cells” value (S. cerevisiae; 0.125 μg/ml) was 14 µg/mg, the “stearic acid per milligram dry weight of cells” value (S. cerevisiae; 0.125 μg/ml) was 3.1 µg/mg and the “oleic acid per milligram dry weight of cells” value (S. cerevisiae; 0.25 μg/ml) was 2.7 µg/mg. The “palmitic acid per milligram dry weight of cells” value (S. cerevisiae; 0.25 μg/ml) was 6 µg/mg, the “palmitoleic acid per milligram dry weight of cells” value (S. cerevisiae; 0.25 μg/ml) was 3 µg/mg and the “stearic acid per milligram dry weight of cells” value (S. cerevisiae; 0.25 μg/ml) was 3 µg/mg. For the same molecule, the “oleic acid per milligram dry weight of cells” value (S. cerevisiae; 0.5 μg/ml) was 1.1 µg/mg, the “palmitic acid per milligram dry weight of cells” value (S. cerevisiae; 0.5 μg/ml) was 5.2 µg/mg and the “palmitoleic acid per milligram dry weight of cells” value (S. cerevisiae; 0.5 μg/ml) was 1 µg/mg. For the same molecule, the “stearic acid per milligram dry weight of cells” value (S. cerevisiae; 0.5 μg/ml) was 4.7 µg/mg, the “oleic acid per milligram dry weight of cells” value (S. cerevisiae; 1 μg/ml) was 1.2 µg/mg and the “palmitic acid per milligram dry weight of cells” value (S. cerevisiae; 1 μg/ml) was 6.7 µg/mg. For the same molecule, the “palmitoleic acid per milligram dry weight of cells” value (S. cerevisiae; 1 μg/ml) was 0 µg/mg, the “stearic acid per milligram dry weight of cells” value (S. cerevisiae; 1 μg/ml) was 5 µg/mg and the “oleic acid per milligram dry weight of cells” value (S. cerevisiae; 2 μg/ml) was 0.5 µg/mg. For the same molecule, the “palmitic acid per milligram dry weight of cells” value (S. cerevisiae; 2 μg/ml) was 5 µg/mg, the “palmitoleic acid per milligram dry weight of cells” value (S. cerevisiae; 2 μg/ml) was 0 µg/mg and the “stearic acid per milligram dry weight of cells” value (S. cerevisiae; 2 μg/ml) was 4.2 µg/mg.

Reference: US20050095663A1, “Process for screening fungitoxic compounds” (priority 2002, published 2005)
